Assay results published in patent US5211944A, “Proanthocyanidin polymers having antiviral activity and methods of obtaining same” (Shaman Pharmaceuticals, Inc., priority 1991, dated 1993).
Values after ≈ are worked out from the molar mass of the structure shown. Values joined by “and” are separate entries in the source; they are usually repeats but may differ in a detail not shown here. Identical values can stand only once. Like-named read-outs stand apart in the source and are kept apart here.

Key:
[1] = tested on: Influenza A/NWS/33 virus; conditions: i.p. once daily for 8 days
[2] = tested on: Influenza viruses; conditions: cited from earlier work
[3] = Persinos et al., 1979; cited from earlier work
[4] = tested on: RNA-directed DNA polymerase; conditions: Sethi, 1977; cited from earlier work
[5] = tested on: Influenza A/NWS/33 virus; conditions: for influenza inhibition (words): 75 mg/kg/day i.p.
[6] = tested on: RSV or influenza virus; conditions: cited from earlier work
[7] = tested on: RSV A2; assay: RSV infection of cotton rats, intraperitoneal dosing, lung titer; format: in vivo, Hispid Cotton Rats; conditions: for % kill: versus control; for ED50: 3-day intraperitoneal dosing
Experimental: Control animals received an equal volume of distilled water. […] All animals were killed on day 5. Lungs were removed and washed via transpleural lavage. The fluid collected was assessed for RSV titer in a microtiter assay using HEp2 cells.
(§1) Tissue control wells contained medium, but no virus. […] Virus control wells were observed daily. […] In addition to visual CPE, inhibition of syncytia formation is used to confirm activity against RSV. Lung RSV titer logm was calculated as described by Dubovi et al., 1983; 1984.

[8] = tested on: Influenza A; assay: microbe, parasite or virus in culture; format: cell-based; conditions: for EC50: Influenza A virus
[9] = tested on: Adenovirus 7; assay: In vitro antiviral assay, inhibition of CPE, adenovirus 7; format: cell-based; conditions: Human mastadenovirus B, HEp-2, HEp2 cells, Table 1 experiments 2-3, read-out: ED50 (the source's name)
[10] = tested on: Influenza B; assay: microbe, parasite or virus in culture; format: cell-based; conditions: for ED50: FLU-B; for EC50: Influenza B virus
[11] = tested on: Adenovirus 5; assay: In vitro antiviral assay, inhibition of CPE, adenovirus 5; format: cell-based; conditions: Human mastadenovirus C, HEp-2, HEp2 cells, Table 1 experiment 2, read-out: ED50 (the source's name)
[12] = tested on: PIV-1; assay: In vitro antiviral assay, inhibition of CPE, PIV-1
[13] = tested on: Respiratory syncytial virus (RSV); assay: microbe, parasite or virus in culture; format: cell-based; conditions: human respiratory syncytial virus
[14] = in vitro
Experimental: The effect of each compound on the growth of uninfected tissue culture cells, seeded at low densities to allow rapid growth, was also evaluated. […] The assay for cell toxicity or inhibition of cell growth involved the following procedure. Test compounds (0.1 ml/well) were serially diluted 2-ofld. To the appropriate wells were added 0.1 ml of human HeLa, A549 or HEp2 cells, 0.1 ml of mouse L929 cells, 0.1 m of monkey Vero cells or 0.1 ml of canine MDCK cells. Approximately 3×10^3 cells were added to each well. Control wells consisted of wells containing a range of cell concentration (e.g., 3×10^3 cells, 1:2 dilution of this number, 1:4, 1:8 and 1:16) in medium without any antiviral compound. A vehicle control consisting of serial dilutions of whatever vehicle was used for a particular compound (e.g., 10% DMSO, 50% methanol) was also included in each assay in duplicate. […] After control wells containing cells, but no test compound, reached confluency, 3-[4,5-Dimethylthiazol-2-yl]-2,5-Diphenyltetrazolium Bromide (MTT) was added to all wells. Three hours later, acid alcohol (0.1 ml of 0.4N HCl in isopropyl alcohol) was added to each well to solubilize any precipitate formed in each well. Plates were read on a plate reader (UV MAX, Molecular Devices) to determine the optical densities in each well. […] All wells in the assay were also observed microscopically for inhibition of cell growth.
The cell lines used were Human HeLa, A549 and HEp-2 cells, mouse L929 cells, monkey Vero cells, canine MDCK cells.
Again, wells were seeded at the low density of 3×10^3 cells per well to allow for rapid growth. […] Blanks which consisted of media alone and media plus drug were also included. […] All wells in each assay were observed microscopically for cyctotoxicity. Then 0.05 ml of MTT (3-[4,5-dimethythiazole-2-yl]-2,5-diaphenyltetrazolium bromide) (5 mg/ml in PBS) was added to all wells and the incubation continued. Three hours later acid alcohol (0.05 ml of N HCl in isopropyl alcohol) was added to each well. The optical densities (O.D.) of each well were read at 490 nm using a plate reader (UV MAX, Molecular Devices). The percent viability of cells at each concentration of drug was calculated by dividing the mean of the O.D.'s of the drug treated wells (minus the mean of the drug blank) by the mean of the O.D.'s of control wells (minus the mean of the blank), and multiplying by 100. The effect of the vehicle on cell viability was similarly calculated.

[15] = tested on: Measles; assay: In vitro antiviral assay, inhibition of CPE, measles; format: cell-based, Measles virus; conditions: Measles morbillivirus, HEp-2, HEp2 cells, Table 1 experiments 1-2, read-out: ED50 (the source's name)
[16] = tested on: RSV A2; assay: RSV infection of cotton rats, oral dosing, lung titer; format: in vivo, Hispid Cotton Rats; conditions: for ED50: human respiratory syncytial virus, 72 h, 3-day oral dosing
Experimental: as §1
All animals were killed on day 5 and lung tissues were collected. Lungs were removed and washed via transpleural lavage. The fluid collected was assessed for RSV titer in a microtiter assay using HEp2 cells as described above.

[17] = Table 16; 75 mg/kg/day i.p. bid × 5; female
[18] = tested on: Parainfluenza virus 3; assay: microbe, parasite or virus in culture; format: cell-based
[19] = 75 mg/kg/day i.p. bid × 5, days 2, 4, 6, 8
[20] = 75 mg/kg/day i.p. bid × 5 from 4 hr post-virus, female

Cl.NC12CC3CC(CC(C3)C1)C2 [Amantadine, 1-Adamantanamine HCL]
inhibition of influenza A infection (overall words) [1]: ineffective
central nervous system side effects [2]: causes some central nervous system side effects
shortening of fever duration and respiratory symptoms [2]: about 50%

COc1ccc2c(=O)oc3c(OC)cc(CCN(C)C)c4c(=O)oc1c2c34 [taspine]
anti-inflammatory activity [3]: exhibits anti-inflammatory activity
RNA-directed DNA polymerase activity [4]: inhibit RNA-directed DNA polymerase activity

NC(=O)c1ncn([C@@H]2O[C@H](CO)[C@@H](O)[C@H]2O)n1 [Ribavirin, 1-β-D-ribofuranosyl-1,2,4-triazole 3-carboxamide]
influenza inhibition (words) [5]: inhibitory to the virus infection
Mean SaO2 % ([5]; 75 mg/kg/day i.p. bid × 5, daily for 10 days): 81%
Mean Score (lung) [5, 19]: 0.3
Mean Virus Titer (log10) [5, 19]: 3.9 log10
Infected, Treated Surv/Total [5, 20]: 10/10
MST [5, 20]: > 21.0 days
Infected, Treated Surv/Total ([5]; 75 mg/kg/day i.p. bid × 5 from 4 hr post-virus, female, listed as ribavirin): All infected, ribavirin-treated mice survived the infection
influenza inhibition (words) ([5]; listed as ribavirin): significant influenza inhibition
severity of illness and amount of virus shed ([6]; acute respiratory infections): reduce the severity of illness and amount of virus shed
teratogenicity ([6]; in animals): teratogenic in animals
Lung titer (RSV titer log 10/g lung, Mean ± S.D.) ([7]; 10 mg/kg i.p.): 4.5 ± 0.2 log 10 /g lung
Lung titer (antilog, in parentheses) ([7]; 10 mg/kg i.p.): 31,622
% kill ([7]; 10 mg/kg i.p.): 0%
Lung titer (RSV titer log 10/g lung, Mean ± S.D.) ([7]; 30 mg/kg i.p.): 4.0 ± 0.3 log 10 /g lung
Lung titer (antilog, in parentheses) ([7]; 30 mg/kg i.p.): 10,000
% kill ([7]; 30 mg/kg i.p.): 68.4%
reduction in lung titers ([7]; 40 mg/kg i.p.): 50%
Lung titer (RSV titer log 10/g lung, Mean ± S.D.) ([7]; 90 mg/kg i.p.): 2.8 ± 0.3 log 10 /g lung
Lung titer (antilog, in parentheses) ([7]; 90 mg/kg i.p.): 631
% kill ([7]; 90 mg/kg i.p.): 98%
ED50 ([7]; individual experiments): 30 mg/kg and 50 mg/kg
ED50 ([7]; human respiratory syncytial virus, ip, 72 h, individual experiments, read-out: ED50): 40 mg/kg
ED50 ([7]; human respiratory syncytial virus, ip, 72 h, mean, read-out: ED50, Mean ± S.E.M.): 40 ± 6 mg/kg
EC50 ([8]; HEp-2, FLU-A, A-Leningrad, read-out: ED50 (the source's name)): 6 µg/mL (≈ 24.6 µM)
EC50 ([8]; HEp-2, FLU-A, A-Shanghai, read-out: ED50 (the source's name)): 6 µg/mL (≈ 24.6 µM)
EC50 ([8]; HEp-2, FLU-A, B-Japan, read-out: ED50 (the source's name)): 1.6 µg/mL (≈ 6.55 µM)
EC50 ([8]; HEp-2, FLU-A, B-NWS/33, read-out: ED50 (the source's name)): 1 µg/mL (≈ 4.09 µM)
EC50 ([8]; HEp-2, FLU-A, B-Portchalm, read-out: ED50 (the source's name)): 1 µg/mL (≈ 4.09 µM)
EC50 ([8]; HEp-2, FLU-A, mean of all strains, read-out: ED50, MEAN): 8.2 µg/mL (≈ 33.6 µM)
EC50 ([8]; HEp-2, Influenza A, HEp2 cells, Table 1 experiments 1-3, read-out: ED50 (the source's name)): 15 µg/mL (≈ 61.4 µM)
ED50 ([8]; Influenza A, HEp2 cells, Table 1 experiments 1-3): 14.3 µg/mL and 14 µg/mL
EC50 [9]: > 1000 µg/mL
ED50 ([10]; B-USSR): 7.8 µg/mL (≈ 31.9 µM)
ED50 ([10]; B-Yamagata): 8.0 µg/mL (≈ 32.8 µM)
EC50 ([10]; HEp-2, FLU-B, B-HongKong, read-out: ED50 (the source's name)): 1 µg/mL (≈ 4.09 µM)
EC50 ([10]; HEp-2, FLU-B, B-USSR, read-out: ED50 (the source's name)): 4 µg/mL (≈ 16.4 µM)
EC50 ([10]; HEp-2, FLU-B, B-Yamagata, read-out: ED50 (the source's name)): 6 µg/mL (≈ 24.6 µM)
EC50 ([10]; HEp-2, FLU-B, mean of all strains, read-out: ED50, MEAN): 5.8 µg/mL (≈ 23.8 µM)
EC50 ([10]; HEp-2, Influenza B, HEp2 cells, Table 1 experiments 1-2, read-out: ED50 (the source's name)): 18 µg/mL (≈ 73.7 µM)
EC50 [11]: > 1000 µg/mL
EC50 ([12]; HEp-2, read-out: ED50, MEAN, PIV-1, mean): 10.7 µg/mL (≈ 43.8 µM)
EC50 ([12]; HEp-2, read-out: ED50, PIV-1): 12 µg/mL (≈ 49.1 µM)
ED50 ([12]; PIV-1): 8.0 µg/mL (≈ 32.8 µM)
EC50 ([13]; HEp-2, RSV B-46791, read-out: ED50 (the source's name)): 8 µg/mL (≈ 32.8 µM)
EC50 ([13]; HEp-2, RSV B-47063, read-out: ED50 (the source's name)): 12 µg/mL (≈ 49.1 µM)
EC50 ([13]; HEp-2, RSV, mean of all strains, read-out: ED50, MEAN): 11.9 µg/mL (≈ 48.7 µM)
CC50 ([14]; ID50, FLU-A, B-Japan experiment): 78 µg/mL (≈ 319 µM)
CC50 ([14]; ID50, FLU-A, B-NWS/33 experiment): 100 µg/mL (≈ 409 µM)
CC50 ([14]; ID50, FLU-A, B-Portchalm experiment): 68 µg/mL (≈ 278 µM)
CC50 ([14]; ID50, FLU-B, B-HongKong experiment): 80 µg/mL (≈ 328 µM)
CC50 ([14]; ID50, MEAN, FLU-A experiments, mean): 750 µg/mL (≈ 3070 µM)
CC50 ([14]; ID50, MEAN, FLU-B experiments, mean): 847 µg/mL (≈ 3470 µM)
CC50 ([14]; ID50, MEAN, RSV experiments, mean): 946 µg/mL (≈ 3870 µM)
CC50 ([14]; ID50, PIV-1 experiment): 1000 µg/mL (≈ 4090 µM)
CC50 ([14]; ID50, PIV-3 experiment): 1000 µg/mL (≈ 4090 µM)
CC50 ([14]; ID50, RSV A-Tracy experiment): 1000 µg/mL (≈ 4090 µM)
CC50 ([14]; ID50, RSV B-18537 experiment): 1000 µg/mL (≈ 4090 µM)
CC50 ([14]; ID50, RSV B-46791 experiment): 1000 µg/mL (≈ 4090 µM)
CC50 ([14]; ID50, RSV B-47063 experiment): 1000 µg/mL (≈ 4090 µM)
EC50 [15]: 31.3 µg/mL (≈ 128 µM)
Lung titer (RSV titer log 10/g lung, Mean ± S.D.) ([16]; 40 mg/kg oral): 3.30 ± 0.5 log 10 /g lung
Lung titer (antilog, in parentheses) ([16]; 40 mg/kg oral): 1,995
reduction in lung titers ([16]; 40 mg/kg oral): > 90%
% kill ([16]; 40 mg/kg oral, versus control): 80%
ED50 ([16]; individual experiments, read-out: ED50): > 90 mg/kg
ED50 ([16]; mean, read-out: ED50, Mean ± SEM): > 90 mg/kg
Host Wt. Change [17]: 0.6 g
Toxicity controls Surv/Total [17]: 5/5
EC50 ([18]; HEp-2, PIV-3, mean, read-out: ED50, MEAN): 15.4 µg/mL (≈ 63.1 µM)
EC50 ([18]; HEp-2, Parainfluenza virus (3), HEp2 cells, Table 1 experiments 1-3, read-out: ED50 (the source's name)): 15.6 µg/mL (≈ 63.9 µM)
ED50 ([18]; PIV-3): 16.0 µg/mL (≈ 65.5 µM)
ED50 ([18]; Parainfluenza virus (3), HEp2 cells, Table 1 experiments 1-3): 15.7 µg/mL and 12 µg/mL
